Measured values: paper PMC4623604, “Discovery of Small Molecules that Inhibit the Disordered Protein, p27^Kip1” (Scientific Reports, 2015)

Experiments:
[1] = target: T1, Cdk2/cyclin A (Homo sapiens, UniProt P24941); assay: Cdk2/cyclin A kinase activity assay (Histone H1 substrate); assay type: biochemical; conditions: SJ403 alone, 10 μM to 3 mM, 200 pM Cdk2/cyclin A
T1 construct: Full length human Cdk2, active Cdk2 (phosphorylated at threonine 160); truncated human cyclin A (residues 173–432); made in house
Protocol: Cdk2/Cyclin A (200 pM) was mixed with Histone H1 (15 μM; EMD Millipore), p27-D2 (200 nM) and varied amounts of lyophilized SJ403 and incubated overnight at 4 °C. The effect of the SJ403 compound on Cdk2 activity was determined by performing similar experiments in the absence of p27-D2. Subsequently, ATP (50 μM total concentration, of which 6 μCi γ ^32P-ATP (PerkinElmer, Inc)) was added to each reaction and further incubated for 35 minutes at 30 °C. […] The sample buffer contained 20 mM HEPES pH 7.3, 25 mM sodium β-glycerolphosphate, 15 mM MgCl2, 16 mM EGTA, 0.5 mM Na3VO4 and 10 mM DTT. The reactions were quenched by addition of SDS-gel loading buffer (5 μL) and then analyzed by SDS-PAGE (10 μL). The gels were dried at 70 °C under vacuum and a phosphoimager (GE Healthcare, Piscataway, NJ) was used to quantify the ^32P-Histone H1 bands. IC50 values were determined by curve fitting using KaleidaGraph software. Experiments were performed in triplicate and mean IC50 and standard deviations of the mean values are reported.

[2] = target: T2, p27-D2/Cdk2/cyclin A (Homo sapiens, UniProt P46527); assay: 2D 1H-15N TROSY-HSQC NMR displacement of p27-D2 from Cdk2/cyclin A; assay type: binding; conditions: 3 mM SJ403, 100 μM complex, 308 K
T2 construct: p27-D2 (residues 58-105 of human p27); 6xHis (N, cleaved yes); made in house; host or cells: E. coli for p27-D2
T2 sequence (P46527 58-105): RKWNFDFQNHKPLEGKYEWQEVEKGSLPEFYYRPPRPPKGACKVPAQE
Protocol: We next used NMR spectroscopy to monitor the displacement of ^2H/^13C/^15N-labeled p27-D2 from Cdk2/cyclin A by SJ403; the complex of p27-D2 with Cdk2/cyclin A (100 μM) was prepared with a slight excess of ^2H/^13C/^15N-p27-D2 (mole ratio, 1.1:1.0 p27-D2:Cdk2/cyclin A). […] In this method, the relative population of the free state resonances (p^f; for the resonance of each p27-D2 residue) was determined as a fraction of the total intensity of both free and bound resonances for a given residue. These values were compared by forming the ratio of the two relative free state populations (p^fw/SJ403/p^fw/o SJ403); values greater than 1 indicated compound-dependent displacement. The relative populations for the bound state (p^b) were also determined for samples without (p^bw/o SJ403) and with SJ403 (p^bw/SJ403). […]
Figure 5 2D ^1H-^15N TROSY-HSQC NMR analysis of displacement of ^15N-p27-D2 from Cdk2/cyclin A by SJ403. 2D ^1H-^15N TROSY-HSQC NMR spectra of p27-D2/Cdk2/cyclin A in the absence (control) and presence of SJ403 (3 mM), respectively, were recorded. […]

effect on Cdk2/cyclin A activity in the absence of p27-D2 [1]: substantially inhibited | displacement of p27-D2 from Cdk2/cyclin A by NMR [2]: partial displacement
Compound: CCn1c(C)c(C)n2c3c(=O)n(C)c(=O)n(C)c3nc12 [SJ403]
